Data as given in patent publication US5674911A, “Antiinfective polyoxypropylene/polyoxyethylene copolymers and methods of use” (Cytrx Corporation, priority 1995, dated 1997).

Assays:
[1] = tested on: human peripheral blood mononuclear cells (PBMC); assay: growth / cytotoxicity in uninfected mitogen stimulated human PBMC; details: 144 h, read-out: % Growth inhibition, PBMC
in vitro = details: human, pha-stimulated pbmc
Vero cells = assay: growth / cytotoxicity in Vero cells; details: Chlorocebus sabaeus, Vero, 96 h, read-out: % Growth inhibition, Vero
[2] = growth / cytotoxicity in Vero cells; details: african green monkey, vero cells
HIV-1 (strain LAV-1) = assay: anti-HIV-1 assay in PBMC (reverse transcriptase activity); type: cell-based; details: Human immunodeficiency virus 1, PBMC, 144 h, read-out: Anti-HIV-1 in PBMC: EC50
Mycobacterium avium = assay: growth index of Mycobacterium avium in Bactec 7H12 Middlebrook broth (14C fatty acid); details: 0.04 μg/ml (FIG. 35)

SMILES | inhibition at 0.1 µM [1] | inhibition at 1 µM [1] | inhibition at 10 µM [1] | inhibition at 50 µM [1] | inhibition at 100 µM [1] | CC50 at 144 h (in vitro) | inhibition at 0.1 µM (Vero cells) | inhibition at 1 µM (Vero cells) | inhibition at 10 µM (Vero cells) | inhibition at 50 µM (Vero cells) | inhibition at 100 µM (Vero cells) | CC50 at 96 h [2] | EC50 (HIV-1 (strain LAV-1)) | inhibiting growth of M. avium (Mycobacterium avium)
Cc1cn([C@H]2C[C@H](N=[N+]=[N-])[C@@H](CO)O2)c(=O)[nH]c1=O [AZT, azidothymidine] | -8.9% | -2.2% | 5.5% | 16.8% | 28.4% | > 100 µM | -1.8% | 10.2% | 20.7% | 47.4% | 66.3% | 50.6 µM | 0.0056 µM | 
CO[C@H]1/C=C/O[C@@]2(C)Oc3c(C)c(O)c4c(O)c(c(/C=N/N5CCN(C)CC5)c(O)c4c3C2=O)NC(=O)/C(C)=C\C=C\[C@H](C)[C@H](O)[C@@H](C)[C@@H](O)[C@@H](C)[C@H](OC(C)=O)[C@@H]1C [Rifampin, rifampin] |  |  |  |  |  |  |  |  |  |  |  |  |  | effective in inhibiting growth
